Legend:
[1] = tested on: MxA, ISG-15, OAS-1, and ISG-56 mRNA; type: cell-based, human
[2] = tested on: human fibroblasts; type: cell-based

Row | Compound | basal ISG mRNA levels in SW-R [1] | protection of fibroblasts from VSV [2]
1 | CCCC(CCC)C(=O)O [VPA, valproic acid] | reduced basal mRNA levels for three out of four ISGs | –
2 | IFN-α | – | completely protect

Source: patent publication US20120315248A1 (priority 2009, published 2012)
